Tests used:
[1] = Inhibition of FGFR
[2] = target: Proto-oncogene tyrosine-protein kinase Src (Homo sapiens) (UniProt P12931); experiment: Inhibition of cSrc
[3] = Inhibition of PDGFR

Sequence of Proto-oncogene tyrosine-protein kinase Src (Homo sapiens) (P12931 2-536 limits assumed): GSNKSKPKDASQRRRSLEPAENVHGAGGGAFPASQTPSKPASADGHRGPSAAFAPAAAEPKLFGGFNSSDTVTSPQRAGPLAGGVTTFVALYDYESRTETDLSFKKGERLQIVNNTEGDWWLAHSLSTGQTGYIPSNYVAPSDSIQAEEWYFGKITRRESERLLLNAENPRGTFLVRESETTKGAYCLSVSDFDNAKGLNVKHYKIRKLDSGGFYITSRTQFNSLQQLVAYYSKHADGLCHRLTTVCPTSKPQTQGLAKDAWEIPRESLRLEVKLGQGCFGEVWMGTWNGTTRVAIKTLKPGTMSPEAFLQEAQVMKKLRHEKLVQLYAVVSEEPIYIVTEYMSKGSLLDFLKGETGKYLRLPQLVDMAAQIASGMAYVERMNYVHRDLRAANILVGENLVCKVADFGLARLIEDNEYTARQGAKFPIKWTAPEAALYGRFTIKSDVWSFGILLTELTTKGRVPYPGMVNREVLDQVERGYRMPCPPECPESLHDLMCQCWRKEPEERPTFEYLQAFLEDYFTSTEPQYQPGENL

| SMILES | log(10^6/IC50) [1] | log(10^6/IC50) [2] | log(10^6/IC50) [3] |
| --- | --- | --- | --- |
| COc1cc(OC)cc(-c2cc3cnc(N)nc3n(C)c2=O)c1 | 3.9 | 1.3 | 1.37 |
| CCOc1cc(OCC)cc(-c2cc3cnc(N)nc3nc2NC(=O)NC(C)(C)C)c1 | 2.78 | 1.3 | 1.3 |
| CN(C)c1cc(-c2cc3cnc(N)nc3nc2NC(=O)NC(C)(C)C)cc(N(C)C)c1 | 1.8 | 1.3 | 1.3 |
| Cn1c(=O)c(-c2c(Cl)cccc2Cl)cc2cncnc21 | 1.3 | 2 | 1.3 |
| CC(C)(C)NC(=O)Nc1nc2nc(N)ncc2cc1-c1cc(C(F)(F)F)cc(C(F)(F)F)c1 | 1.3 | 1.3 | 1.3 |

Now from value to compound:

| log(10^6/IC50) [1] | log(10^6/IC50) [2] | log(10^6/IC50) [3] | SMILES |
| --- | --- | --- | --- |
| 4.29 | 5 | 3.94 | CN1CCN(c2ccc(Nc3ncc4cc(-c5c(Cl)cccc5Cl)c(=O)n(C)c4n3)cc2)CC1 |
| 4.21 | 5 | 4.15 | Cn1c(=O)c(-c2c(Cl)cccc2Cl)cc2cnc(Nc3ccc(CC(=O)O)cc3)nc21 |
|  | 4.55 |  | COc1ccc(NC(=O)Nc2nc3nc(NCCCN4CCN(C)CC4)ncc3cc2-c2c(Cl)cccc2Cl)cc1 |
| 1.3 | 1.3 | 1.3 | CN(C)c1ncc2cc(-c3c(Cl)cccc3Cl)c(=O)n(C)c2n1 |
| 1.3 | 1.3 | 1.3 | Cc1ncc2cc(-c3c(Cl)cccc3Cl)c(=O)n(C)c2n1 |

Source: ChEMBL document CHEMBL1143173, “2D Autocorrelation, CoMFA, and CoMSIA modeling of protein tyrosine kinases' inhibition by substituted pyrido[2,3-d]pyrimidine derivatives” (Bioorg Med Chem, 2008)
